For test [1], the target named is T1, Cytochrome P450 2C9 (Homo sapiens, UniProt P11712). The test can be described thus: Inhibitory activity against Cytochrome P450 2C9. In kind it is ADME.
Test [2] is described as follows: Percent increase of potassium current mediated by large conductance calcium-activated channel expressed in Xenopus laevis oocytes at 20 uM. The test is classed as functional, Homo sapiens, Oocyte.
In test [3] the target is T2, Cytochrome P450 3A4 (Homo sapiens, UniProt P08684). Kind of test: Inhibition against Cytochrome P450 3A4 prepared from baculovirus-infected insect cells using resorufin benzyl ether. In kind it is ADME.
Test [4] deals with T3, Cytochrome P450 1A2 (Homo sapiens, UniProt P05177).
T3 sequence (P05177 whole entry): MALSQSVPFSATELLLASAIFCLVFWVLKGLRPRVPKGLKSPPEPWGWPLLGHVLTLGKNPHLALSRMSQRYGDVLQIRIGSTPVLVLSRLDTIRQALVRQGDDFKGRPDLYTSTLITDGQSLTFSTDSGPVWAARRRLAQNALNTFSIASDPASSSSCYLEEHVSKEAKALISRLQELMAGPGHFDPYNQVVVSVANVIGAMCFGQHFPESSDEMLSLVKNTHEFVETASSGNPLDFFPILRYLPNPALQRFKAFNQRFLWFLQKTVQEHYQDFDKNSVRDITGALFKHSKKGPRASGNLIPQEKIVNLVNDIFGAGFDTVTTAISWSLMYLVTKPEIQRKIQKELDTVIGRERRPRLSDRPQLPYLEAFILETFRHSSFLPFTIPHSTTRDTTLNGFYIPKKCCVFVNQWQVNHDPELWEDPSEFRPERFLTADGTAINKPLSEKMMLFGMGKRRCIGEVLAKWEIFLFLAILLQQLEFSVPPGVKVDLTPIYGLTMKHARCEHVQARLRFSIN
The test can be described thus: Inhibition against Cytochrome P450 1A2 prepared from baculovirus-infected insect cells using 3-cyano-7-ethoxycoumarin. The test is classed as ADME.

The target in test [5] is Cytochrome P450 2C19 (Homo sapiens, UniProt P33261). Kind of test: Inhibition against Cytochrome P450 2C19 prepared from baculovirus-infected insect cells using 3-cyano-7-ethoxycoumarin. In kind it is ADME.
The target of test [6] is T1, Cytochrome P450 2C9. Kind of test: Inhibition against Cytochrome P450 2C9 prepared from baculovirus-infected insect cells using 7-methoxy-4-trifluoromethylcoumarin. The test is classed as ADME.
Test [7] deals with T2, Cytochrome P450 3A4. The test can be described thus: Inhibition against Cytochrome P450 3A4 prepared from baculovirus-infected insect cells using 7-benzyloxy- 4-trifluoromethylcoumarin. The test is classed as ADME.
The target of test [8] is T4, Cytochrome P450 2D6 (Homo sapiens, UniProt P10635). The test can be described thus: Inhibition against Cytochrome P450 2D6 prepared from baculovirus-infected insect cells using 3-[2-(N,N-diethyl-N-methylamino)ethyl]-7- methoxy-4-methylcoumarin. In kind it is ADME.
In test [9] the target is T1, Cytochrome P450 2C9. Kind of test: Inhibition against Cytochrome P450 2C9. The test is classed as ADME.
Test [10] concerns the target T2, Cytochrome P450 3A4. The test can be described thus: Inhibition against Cytochrome P450 3A4 prepared from baculovirus-infected insect cells using resorufin benzylether. The test is classed as ADME.
Test [11] addresses T2, Cytochrome P450 3A4. Kind of test: Inhibition against Cytochrome P450 3A4 prepared from baculovirus-infected insect cells using 7-benzyloxy-4-trifluoromethylcoumarin. In kind it is ADME.
The target of test [12] is T4, Cytochrome P450 2D6. The test can be described thus: Inhibition against Cytochrome P450 2D6 prepared from baculovirus-infected insect cells using 3-[2-(N,N-diethyl-N-methylamino)ethyl]-7-methoxy-4-methylcoumarin. The test is classed as ADME.

What is called IC50 is the concentration that inhibits the measured activity by half. High values mean lower potency, low ones higher potency.

T2 sequence (P08684 whole entry): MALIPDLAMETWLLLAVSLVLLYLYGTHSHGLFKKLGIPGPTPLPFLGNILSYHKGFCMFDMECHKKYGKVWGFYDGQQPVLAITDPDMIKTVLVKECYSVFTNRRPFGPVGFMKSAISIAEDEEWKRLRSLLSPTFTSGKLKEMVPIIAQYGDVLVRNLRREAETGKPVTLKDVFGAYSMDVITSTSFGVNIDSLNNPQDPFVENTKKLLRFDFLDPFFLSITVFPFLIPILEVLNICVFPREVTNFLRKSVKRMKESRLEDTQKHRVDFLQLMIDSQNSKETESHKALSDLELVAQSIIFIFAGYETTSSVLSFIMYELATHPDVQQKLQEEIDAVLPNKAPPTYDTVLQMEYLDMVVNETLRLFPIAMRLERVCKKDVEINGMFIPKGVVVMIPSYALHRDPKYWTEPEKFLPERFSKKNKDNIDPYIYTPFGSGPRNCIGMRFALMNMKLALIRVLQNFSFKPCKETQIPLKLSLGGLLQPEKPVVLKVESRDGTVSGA
T1 sequence (P11712 whole entry): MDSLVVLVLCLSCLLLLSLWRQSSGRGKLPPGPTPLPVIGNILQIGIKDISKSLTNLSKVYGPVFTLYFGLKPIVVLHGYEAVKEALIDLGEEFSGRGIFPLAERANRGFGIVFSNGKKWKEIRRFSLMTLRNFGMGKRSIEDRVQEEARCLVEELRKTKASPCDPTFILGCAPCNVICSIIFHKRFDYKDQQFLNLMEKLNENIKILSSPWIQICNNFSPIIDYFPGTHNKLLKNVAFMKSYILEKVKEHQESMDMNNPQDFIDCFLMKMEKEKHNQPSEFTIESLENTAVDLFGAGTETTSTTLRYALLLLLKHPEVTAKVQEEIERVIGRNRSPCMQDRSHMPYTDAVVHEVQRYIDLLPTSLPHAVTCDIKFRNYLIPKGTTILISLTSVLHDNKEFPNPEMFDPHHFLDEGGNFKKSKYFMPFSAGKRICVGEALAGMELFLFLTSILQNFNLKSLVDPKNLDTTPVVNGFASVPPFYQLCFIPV
T4 sequence (P10635 whole entry): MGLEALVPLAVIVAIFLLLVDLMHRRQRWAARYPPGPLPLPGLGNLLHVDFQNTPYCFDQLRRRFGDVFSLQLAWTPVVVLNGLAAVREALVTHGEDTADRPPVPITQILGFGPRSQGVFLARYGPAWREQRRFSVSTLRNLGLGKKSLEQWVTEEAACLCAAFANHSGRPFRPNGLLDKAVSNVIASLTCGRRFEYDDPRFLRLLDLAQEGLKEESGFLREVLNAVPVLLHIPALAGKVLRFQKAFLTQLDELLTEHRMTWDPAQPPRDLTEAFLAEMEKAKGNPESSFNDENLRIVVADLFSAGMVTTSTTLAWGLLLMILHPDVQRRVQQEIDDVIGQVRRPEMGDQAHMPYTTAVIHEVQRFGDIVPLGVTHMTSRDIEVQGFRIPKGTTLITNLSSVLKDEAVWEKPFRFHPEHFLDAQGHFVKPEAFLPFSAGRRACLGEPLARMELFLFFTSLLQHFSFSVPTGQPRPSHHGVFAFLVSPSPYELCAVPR
Cytochrome P450 2C19, sequence (P33261 whole entry): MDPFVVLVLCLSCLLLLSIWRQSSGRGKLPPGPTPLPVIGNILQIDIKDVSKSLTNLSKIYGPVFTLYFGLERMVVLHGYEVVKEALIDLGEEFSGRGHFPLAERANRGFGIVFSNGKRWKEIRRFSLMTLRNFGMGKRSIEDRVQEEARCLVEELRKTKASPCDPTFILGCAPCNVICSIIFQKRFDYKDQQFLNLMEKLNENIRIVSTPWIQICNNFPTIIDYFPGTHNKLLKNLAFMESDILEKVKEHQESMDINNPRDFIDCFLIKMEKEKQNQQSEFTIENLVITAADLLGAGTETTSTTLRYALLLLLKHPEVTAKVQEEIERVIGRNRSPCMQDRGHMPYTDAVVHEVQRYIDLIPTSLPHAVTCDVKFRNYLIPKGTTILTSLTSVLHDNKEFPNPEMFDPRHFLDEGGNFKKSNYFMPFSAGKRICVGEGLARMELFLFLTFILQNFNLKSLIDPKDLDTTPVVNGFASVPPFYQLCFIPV

Turning to `O=c1[nH]c2ccccc2c(Cc2ccccc2)c1-[n+]1ccccc1`, in test [1], the IC50 is > 100 µM.

With `N=C(N)Cn1c(=O)c(CCO)c(-c2cc(Cl)ccc2O)c2cc(C(F)(F)F)ccc21`, the Increase in [2] worked out at 105.8%.

`CCN(CC)C[C@@H](O)CSc1c(-c2cc(Cl)ccc2O)c2cc(C(F)(F)F)ccc2[nH]c1=O` gave an IC50 in [1] of 50.7 µM.

For `O=c1c(CCO)c(-c2cc(Cl)ccc2O)c2cc(C(F)(F)F)ccc2n1Cc1nn[nH]n1`, the IC50 in test [3] was 13 µM; in test [4], > 100 µM; in test [5], 12 µM; in [6], 19 µM; in test [7], 30 µM; in [8], > 100 µM. In addition, the Increase in test [2] worked out at 205.8%.

Consider `NC(=O)COc1ccc(Cl)cc1-c1c(CCO)c(O)nc2ccc(C(F)(F)F)cc12`, for which the Increase in test [2] stood at 124%.

Take `N=C(N)COc1ccc(Cl)cc1-c1c(CCO)c(O)nc2ccc(C(F)(F)F)cc12`: in test [2], the Increase is reported as 118.3%.

Turning to `NC(=O)Cn1c(=O)c(CCO)c(-c2cc(Cl)ccc2O)c2cc(C(F)(F)F)ccc21`, the IC50 in test [3] is 50 µM; in test [4], > 100 µM; in [5], 8.2 µM; in test [6] it was 16 µM; in test [7], 26 µM; in test [8], > 100 µM. Besides, in test [2], the Increase amounted to 262.5%.

The compound `COc1ccc(Cl)cc1-c1c(CCO)c(O)nc2ccc(C(F)(F)F)cc12` gave an IC50 in [1] of 5.47 µM. Further, the Increase in [2] is on record as 211.2%.

For `Cn1c(=O)c(CCO)c(-c2cc(Cl)ccc2O)c2cc(C(F)(F)F)ccc21`, the IC50 in [1] was found to be 1.1 µM. Besides, the Increase in test [2] worked out at 296.1%.

`O=c1[nH]c2ccc(C(F)(F)F)cc2c(-c2cc(Cl)ccc2O)c1CCO` [BMS-223131]: the IC50 is 1700 nM in test [9]; > 100 µM in [10]; 30 µM in test [4]; 5.2 µM in test [5]; 1.7 µM in [6]; 8.1 µM in test [11]. For the same compound, the IC50 in [12] came to 35 µM. Further, the Increase in [2] is 252.6%.

In the case of `N#CCOc1ccc(Cl)cc1-c1c(CCO)c(O)nc2ccc(C(F)(F)F)cc12`, the Increase in [2] was 148.9%.

As to `CCN(CC)C[C@H](O)CSc1c(-c2cc(Cl)ccc2O)c2cc(C(F)(F)F)ccc2[nH]c1=O`, the IC50 in [1] was determined as 37.7 µM.

Take `CC(=O)CC1Oc2ccc(Cl)cc2-c2c1c(=O)[nH]c1ccc(C(F)(F)F)cc21` (stereo not drawn): in test [1], it took 19.5 µM to reach half-maximal inhibition (IC50).

With `O=C1Cc2c(c3cc(C(F)(F)F)ccc3[nH]c2=O)-c2cc(Cl)ccc2O1`, half-maximal inhibition in [1] (IC50) required 12.4 µM.

In the case of `N#CCn1c(=O)c(CCO)c(-c2cc(Cl)ccc2O)c2cc(C(F)(F)F)ccc21`, the concentration for half-maximal inhibition (IC50) in test [3] is 18 µM; in test [4] it was > 40 µM; in [5] it was 24 µM; in test [6], 3.9 µM; in test [7] it was 13 µM; in test [8], 23 µM. In [2], the Increase came to 236.6%.

As for `OCCc1c(O)nc2ccc(C(F)(F)F)cc2c1-c1cc(Cl)ccc1OCc1nn[nH]n1`, the Increase in test [2] worked out at 111%.
